Reference: article PMC4676410 (Journal of medicinal chemistry, 2015)
“And” between values parts separate entries of the source, which are not always exact repeats. Identical values can stand only once. Like-named read-outs stand apart in the source and are kept apart here.

Assays:
HIV-1IIIB = experiment: CD4-dependent CXCR4-tropic HIV-1 cell-cell transmission assay; type: cell-based; conditions: read-out: IC50, CXCR4-tropic HIV-1 cell-cell transmission; Ghost X4/R5 and H9/HIV-1IIIB, p24
MT-2 cells = experiment: Cytotoxicity in MT-2 cells; type: cell-based
PBMC = experiment: Cytotoxicity in PBMCs; type: cell-based, human
U87-CD4-CXCR4 cells = experiment: Cytotoxicity in U87-CD4-CXCR4 cells; type: cell-based
[1] = test system: laboratory-adapted HIV-1 strains; experiment: microbe, parasite or virus in culture; type: cell-based
[2] = test system: HIV-1HXB2 (CXCR4-tropic) pseudovirus; experiment: Single-cycle infection assay in U87-CD4-CXCR4 cells; conditions: U87-CD4-CXCR4, HIV-1HXB2
TZM-bl cells = experiment: Cytotoxicity in TZM-bl cells; type: cell-based
[3] = test system: HIV-1ADA (CCR5-tropic) pseudovirus; experiment: Single-cycle infection assay in U87-CD4-CCR5 cells; conditions: U87-CD4-CCR5, HIV-1ADA
[4] = target: HIV-1 reverse transcriptase (RT) (Human immunodeficiency virus type 1 group M subtype B, UniProt P12497); experiment: HIV-1 reverse transcriptase; conditions: read-out: IC50, HIV-1 reverse transcriptase (RT) assay
HIV-1 Env pseudoviruses [5] = conditions: data previously published ref 19, cited from earlier work
U87-CD4-CCR5 cells = experiment: Cytotoxicity in U87-CD4-CCR5 cells; type: cell-based
HIV-1 integrase = HIV-1 integrase (Human immunodeficiency virus type 1 group M subtype B, UniProt P04585); experiment: HIV-1 integrase assay; type: biochemical; conditions: read-out: IC50, HIV-1 integrase assay
HIV-1 Env pseudoviruses [6] = type: cell-based
A-MLV = experiment: microbe, parasite or virus in culture; type: cell-based; conditions: control, A-MLV envelope pseudovirus
YU2 core gp120 = experiment: SPR: binding of YU2 core gp120 to captured mAb 17b in presence of compounds; parameters: species or system HIV-1; conditions: sCD4 15-fold excess, compounds 50-fold excess
HIV-1ADA = experiment: CD4-dependent CCR5-tropic HIV-1 cell-cell transmission assay; type: cell-based; conditions: read-out: IC50, CCR5-tropic HIV-1 cell-cell transmission; Ghost X4/R5 and MOLT-4/HIV-1ADA, p24
[7] = test system: lab-adapted and primary HIV-1 isolates; experiment: microbe, parasite or virus in culture; type: cell-based; conditions: PBMC
VSV-G = experiment: microbe, parasite or virus in culture; type: cell-based; conditions: control, VSV-G envelope pseudovirus
[8] = test system: fusion between MAGI-CCR5 and HL 2/3 cells; experiment: HIV-1 cell-cell fusion assay; type: cell-based; conditions: read-out: IC50, cell-cell fusion assay; MAGI-CCR5 and HL 2/3 cells

SMILES: CC1(C)CC(NC(=O)C(=O)Nc2ccc(Cl)cc2)CC(C)(C)N1 [NBD-556]
- IC50 (HIV-1IIIB): ~60 µM
- CC50 (MT-2 cells): > 280 µM
- CC50 (PBMC): > 280 µM
- CC50 (U87-CD4-CXCR4 cells): ~60 µM
- IC50 ([1]; RT inhibitor-resistant isolate AZT-R, subtype B, MT-2, X4): 58 ± 14.3 µM
- IC50 ([1]; fusion inhibitor-resistant isolate pNL4-3 gp41(36G)V38E,N42S, subtype B, MT-2, X4): 11 ± 0.9 µM
- IC50 ([1]; laboratory strain MN, subtype B, MT-2, X4): 15.9 ± 1.6 µM
- IC50 ([1]; laboratory strain RF, subtype B, MT-2, R5X4): 18.7 ± 1.3 µM
- IC50 ([1]; laboratory strain SF2, subtype B, MT-2, R5X4): ≥ 118 µM
- IC50 ([1]; protease inhibitor-resistant isolate HIV-1RF/L-323-12-3, subtype B, MT-2, X4): < 59 µM
- IC50 [2]: 9.5 ± 0.6 µM
- CC50 (TZM-bl cells): ~60 µM
- IC50 [3]: 7.4 ± 0.8 µM
- IC50 [4]: > 200 µM
- IC50 (HIV-1 Env pseudoviruses [5]; subtype A, NIH #11887, Q259env.w6): 6.9 ± 0.9 µM
- IC50 (HIV-1 Env pseudoviruses [5]; subtype A/D, NIH #11901, QA790.204I.ENV.A4): 12.3 ± 1.8 µM
- IC50 (HIV-1 Env pseudoviruses [5]; subtype A/D, NIH #11903, QA790.204I.ENV.C8): 5 ± 1 µM
- IC50 (HIV-1 Env pseudoviruses [5]; subtype A/D, NIH #11904, QA790.204I.ENV.E2): 7.1 ± 0.5 µM
- IC50 (HIV-1 Env pseudoviruses [5]; subtype B, NIH #11024, AC10.0, clone 29): 8.9 ± 3 µM
- IC50 (HIV-1 Env pseudoviruses [5]; subtype B, NIH #11038, pCAAN5342 clone A2): 2.4 ± 0.3 µM
- IC50 (HIV-1 Env pseudoviruses [5]; subtype B, NIH #11058, SC422661.8): 4.8 ± 0.4 µM
- IC50 (HIV-1 Env pseudoviruses [5]; subtype B, NIH #11578, pWEAUd15.410.5017, R5X4-tropic): 4.9 ± 0.8 µM
- IC50 (HIV-1 Env pseudoviruses [5]; subtype D, NIH #11913, QA465.59M.ENV.A1): 4.8 ± 0.2 µM
- CC50 (U87-CD4-CCR5 cells): ~60 µM
- IC50 (HIV-1 integrase): > 200 µM
- IC50 (HIV-1 Env pseudoviruses [6]): 11.5 µM and 9.4 µM
- IC50 (HIV-1 Env pseudoviruses [6]; TZM-bl, HIV-1HXB2): 6.9 ± 0.9 µM
- share of viruses showing sensitivity at ≤3 μM (HIV-1 Env pseudoviruses [6]; panel of 56 HIV-1 Env pseudoviruses): 7%
- IC50 (HIV-1 Env pseudoviruses [6]; subtype A2/D, NIH #11906, QG393.60M.ENV.B7): 3.5 ± 0.2 µM
- IC50 (HIV-1 Env pseudoviruses [6]; subtype A2/D, NIH #11907, QG393.60M.ENV.B8): 3.6 ± 0.1 µM
- IC50 (HIV-1 Env pseudoviruses [6]; subtype A, KNH1144): 20 ± 3.2 µM
- IC50 (HIV-1 Env pseudoviruses [6]; subtype A, NIH #11888, QB726.70M.ENV.C4): 20.2 ± 6 µM
- IC50 (HIV-1 Env pseudoviruses [6]; subtype A, NIH #11889, QB726.70M.ENV.B3): 11.3 ± 2.5 µM
- IC50 (HIV-1 Env pseudoviruses [6]; subtype A, NIH #11890, QF495.23M.ENV.A1): 13.6 ± 2.3 µM
- IC50 (HIV-1 Env pseudoviruses [6]; subtype A, NIH #11891, QF495.23M.ENV.A3): 27.8 ± 9.3 µM
- IC50 (HIV-1 Env pseudoviruses [6]; subtype A, NIH #11892, QF495.23M.ENV.B2): 20.4 ± 7 µM
- IC50 (HIV-1 Env pseudoviruses [6]; subtype A/E, AA058): 4.1 ± 0.8 µM
- IC50 (HIV-1 Env pseudoviruses [6]; subtype A/E, CM244): 5.6 ± 0.8 µM
- IC50 (HIV-1 Env pseudoviruses [6]; subtype A/E, NIH #11603 (potential), CRF01_AE clone 269): 10.7 ± 1.5 µM
- IC50 (HIV-1 Env pseudoviruses [6]; subtype A/G, NIH #11601, CRF02_AG clone 263): 7 ± 2.2 µM
- IC50 (HIV-1 Env pseudoviruses [6]; subtype A/G, NIH #11602, CRF02_AG clone 266): 4.6 ± 1.6 µM
- IC50 (HIV-1 Env pseudoviruses [6]; subtype A/G, NIH #11605, CRF02_AG clone 278): 6.5 ± 1.1 µM
- IC50 (HIV-1 Env pseudoviruses [6]; subtype B, B41): 4.5 ± 2 µM
- IC50 (HIV-1 Env pseudoviruses [6]; subtype B, NIH #11018, QH0692, clone 42): 2 ± 0.6 µM
- IC50 (HIV-1 Env pseudoviruses [6]; subtype B, NIH #11022, PVO, clone 4): 3.5 ± 0.7 µM
- IC50 (HIV-1 Env pseudoviruses [6]; subtype B, NIH #11023, TRO, clone 11): 4.1 ± 0.6 µM
- IC50 (HIV-1 Env pseudoviruses [6]; subtype B, NIH #11033, pWIT04160 clone 33): 4.8 ± 0.8 µM
- IC50 (HIV-1 Env pseudoviruses [6]; subtype B, NIH #11035, PREJ04541 clone 67): 3.4 ± 0.2 µM
- IC50 (HIV-1 Env pseudoviruses [6]; subtype B, NIH #11036, pRHPA4259 clone 7): 4.3 ± 0.5 µM
- IC50 (HIV-1 Env pseudoviruses [6]; subtype B, NIH #11037, PTHR04156 clone 18): 8.4 ± 2.4 µM
- IC50 (HIV-1 Env pseudoviruses [6]; subtype B, NIH #11563, p1058_11.B11.1550, R5X4-tropic): 1.9 ± 1 µM
- IC50 (HIV-1 Env pseudoviruses [6]; subtype C, NIH #11306, Du156, clone 12): 5 ± 0.9 µM
- IC50 (HIV-1 Env pseudoviruses [6]; subtype C, NIH #11307, Du172, clone 17): 4.8 ± 0.2 µM
- IC50 (HIV-1 Env pseudoviruses [6]; subtype C, NIH #11308, Du422, clone 1): 6.1 ± 0.5 µM
- IC50 (HIV-1 Env pseudoviruses [6]; subtype C, NIH #11309, ZM197M.PB7): 3.8 ± 0.3 µM
- IC50 (HIV-1 Env pseudoviruses [6]; subtype C, NIH #11310, ZM214M.PL15): 4.1 ± 0.7 µM
- IC50 (HIV-1 Env pseudoviruses [6]; subtype C, NIH #11311, ZM233M.PB6): 6.6 ± 0.8 µM
- IC50 (HIV-1 Env pseudoviruses [6]; subtype C, NIH #11312, ZM249M.PL1): 6.1 ± 0.3 µM
- IC50 (HIV-1 Env pseudoviruses [6]; subtype C, NIH #11313, ZM53M.PB12): 14.6 ± 1 µM
- IC50 (HIV-1 Env pseudoviruses [6]; subtype C, NIH #11314, ZM109F.PB4): 6.2 ± 0.3 µM
- IC50 (HIV-1 Env pseudoviruses [6]; subtype C, NIH #11315, ZM135M.PL10a): 2.2 ± 0.6 µM
- IC50 (HIV-1 Env pseudoviruses [6]; subtype C, NIH #11316, CAP45.2.00.G3): 9.6 ± 0.3 µM
- IC50 (HIV-1 Env pseudoviruses [6]; subtype C, NIH #11317, CAP210.2.00.E8): 5.3 ± 0.6 µM
- IC50 (HIV-1 Env pseudoviruses [6]; subtype C, NIH #11908, QB099.391 M.ENV.B1): 5.7 ± 0.9 µM
- IC50 (HIV-1 Env pseudoviruses [6]; subtype C, NIH #11909, QB099.391 M.ENV.C8): 3.6 ± 0.9 µM
- IC50 (HIV-1 Env pseudoviruses [6]; subtype C, NIH #11910, QC406.70M.ENV.F3): 3.6 ± 0.9 µM
- IC50 (HIV-1 Env pseudoviruses [6]; subtype D, NIH #11911, QA013.70I.ENV.H1): 9.4 ± 2.6 µM
- IC50 (HIV-1 Env pseudoviruses [6]; subtype D, NIH #11912, QA013.70I.ENV.M12): 5.4 ± 0.3 µM
- IC50 (HIV-1 Env pseudoviruses [6]; subtype D, NIH #11914, QA465.59M.ENV.D1): 6.1 ± 0.5 µM
- IC50 (HIV-1 Env pseudoviruses [6]; subtype D, NIH #11916, QD435.100M.ENV.B5): 4.4 ± 1 µM
- IC50 (HIV-1 Env pseudoviruses [6]; subtype D, NIH #11918, QD435.100M.ENV.E1): 6.2 ± 1.7 µM
- IC50 (A-MLV): > 60 µM
- enhancement of mAb 17b binding to YU2 core gp120 (in words) (YU2 core gp120): highest enhancement
- IC50 (HIV-1ADA): ~60 µM
- IC50 ([7]; laboratory strain 89.6, subtype B, R5X4): 4.8 ± 1 µM
- IC50 ([7]; laboratory strain BaL, subtype B, R5): ≥ 118 µM
- IC50 ([7]; laboratory strain SF162, subtype B, R5): 48.9 ± 7.3 µM
- IC50 ([7]; primary isolate 92US657, subtype B, R5): 48 ± 1.65 µM
- IC50 ([7]; primary isolate 93MW959, subtype C, R5): 57.2 ± 8.7 µM
- IC50 ([7]; primary isolate 93TH060, subtype E, R5): > 45 µM
- IC50 ([7]; primary isolate RU570, subtype G, R5): 19.5 ± 2.3 µM
- IC50 (VSV-G): > 60 µM
- IC50 [8]: 6.5 µM
